From US20040192910A1, “Sulfonylamino derivatives useful as herbicides” (priority 2001, published 2004)

What was measured:
Format in all cases: in vivo
Design in all cases: key: 1=total damage; 9=no action
Setaria = assay: Post-emergence herbicidal action; conditions: 250 g a.i./ha (500 litres water/ha), sprayed at 4- to 6-leaf stage, evaluated after about 18 days; scale of nine ratings, 1 to 4 = good to very good action
Source text: (§1) Post-Emergence Herbicidal Action
(§2) Monocotyledonous and dicotyledonous test plants are raised in a greenhouse in plastic pots containing standard soil and at the 4- to 6-leaf stage are sprayed with an aqueous suspension of the test compounds of formula I (prepared from a 25% wettable powder (Example F3, b) according to WO 97/34485) or with an emulsion of the test compounds of formula I (prepared from a 25% emulsifiable concentrate (Example F1, c) according to WO 97/34485) at a rate of application corresponding to 250 g a.i./ha (500 litres water/ha). The test plants are then grown on in the greenhouse under optimum conditions. After a test duration of about 18 days, the test is evaluated in accordance with a scale of nine ratings (1=total damage, 9=no action). Ratings of from 1 to 4 (especially from 1 to 3) indicate good to very good herbicidal action.

Stellaria = assay: Post-emergence herbicidal action; conditions: 250 g a.i./ha (500 litres water/ha), sprayed at 4- to 6-leaf stage, evaluated after about 18 days; scale of nine ratings, 1 to 4 = good to very good action
Source text: as §1, §2

Amarantus [1] = assay: Post-emergence herbicidal action; conditions: 250 g a.i./ha (500 litres water/ha), sprayed at 4- to 6-leaf stage, evaluated after about 18 days; scale of nine ratings, 1 to 4 = good to very good action
Source text: as §1, §2

Digitaria [2] = assay: Post-emergence herbicidal action; conditions: 250 g a.i./ha (500 litres water/ha), sprayed at 4- to 6-leaf stage, evaluated after about 18 days; scale of nine ratings, 1 to 4 = good to very good action
Source text: as §1, §2

Panicum [3] = assay: Post-emergence herbicidal action; conditions: 250 g a.i./ha (500 litres water/ha), sprayed at 4- to 6-leaf stage, evaluated after about 18 days; scale of nine ratings, 1 to 4 = good to very good action
Source text: as §1, §2

Chenopodium [4] = assay: Post-emergence herbicidal action; conditions: 250 g a.i./ha (500 litres water/ha), sprayed at 4- to 6-leaf stage, evaluated after about 18 days; scale of nine ratings, 1 to 4 = good to very good action
Source text: as §1, §2

Brachiaria [5] = assay: Post-emergence herbicidal action; conditions: 250 g a.i./ha (500 litres water/ha), sprayed at 4- to 6-leaf stage, evaluated after about 18 days; scale of nine ratings, 1 to 4 = good to very good action
Source text: as §1, §2

Abutilon [6] = assay: Post-emergence herbicidal action; conditions: 250 g a.i./ha (500 litres water/ha), sprayed at 4- to 6-leaf stage, evaluated after about 18 days; scale of nine ratings, 1 to 4 = good to very good action
Source text: as §1, §2

Amarantus [7] = assay: Pre-emergence herbicidal action; conditions: 250 g a.i./ha (500 litres water/ha), sprayed immediately after sowing, evaluated after 3 weeks; scale of nine ratings, 1 to 4 = good to very good action
Source text: (§3) Herbicidal Action Prior to Emergence of the Plants (Pre-Emergence Action) Monocotyledonous and dicotyledonous test plants are sown in standard soil in plastic pots. Immediately after sowing, an aqueous suspension (prepared from a 25% wettable powder (Example F3, b) according to WO 97/34485) or an emulsion (prepared from a 25% emulsifiable concentrate (Example F1, c)) of the test compounds is applied by spraying at a rate of application corresponding to 250 […]). The test plants are then cultivated in a greenhouse under optimum conditions.

Digitaria [8] = assay: Pre-emergence herbicidal action; conditions: 250 g a.i./ha (500 litres water/ha), sprayed immediately after sowing, evaluated after 3 weeks; scale of nine ratings, 1 to 4 = good to very good action
Source text: as §3

Euphoria = assay: Pre-emergence herbicidal action; conditions: 250 g a.i./ha (500 litres water/ha), sprayed immediately after sowing, evaluated after 3 weeks; scale of nine ratings, 1 to 4 = good to very good action
Source text: as §3

Panicum [9] = assay: Pre-emergence herbicidal action; conditions: 250 g a.i./ha (500 litres water/ha), sprayed immediately after sowing, evaluated after 3 weeks; scale of nine ratings, 1 to 4 = good to very good action
Source text: as §3

Chenopodium [10] = assay: Pre-emergence herbicidal action; conditions: 250 g a.i./ha (500 litres water/ha), sprayed immediately after sowing, evaluated after 3 weeks; scale of nine ratings, 1 to 4 = good to very good action
Source text: as §3

Echinochloa = assay: Pre-emergence herbicidal action; conditions: 250 g a.i./ha (500 litres water/ha), sprayed immediately after sowing, evaluated after 3 weeks; scale of nine ratings, 1 to 4 = good to very good action
Source text: as §3

Brachiaria [11] = assay: Pre-emergence herbicidal action; conditions: 250 g a.i./ha (500 litres water/ha), sprayed immediately after sowing, evaluated after 3 weeks; scale of nine ratings, 1 to 4 = good to very good action
Source text: as §3

Abutilon [12] = assay: Pre-emergence herbicidal action; conditions: 250 g a.i./ha (500 litres water/ha), sprayed immediately after sowing, evaluated after 3 weeks; scale of nine ratings, 1 to 4 = good to very good action
Source text: as §3

## Cc1nc(C(F)(F)F)ccc1C(=O)C1=C(Cl)C(C)(C)C(=O)C(C)(C)C1=NS(C)(=O)=O [1.001, N-[3-chloro-4,4,6,6-tetramethyl-2-(2-methyl-6-trifluoromethyl-pyridine-3-carbonyl)-5-oxo-cyclohex-2-en-ylidene]-methanesulfonamide]
Setaria
  Post-emergence action, rating, Setaria: 1
Stellaria
  Post-emergence action, rating, Stellaria: 2
Amarantus [1]
  Post-emergence action, rating, Amarantus: 2
Digitaria [2]
  Post-emergence action, rating, Digitaria: 1
Panicum [3]
  Post-emergence action, rating, Panicum: 1
Chenopodium [4]
  Post-emergence action, rating, Chenopodium: 2
Brachiaria [5]
  Post-emergence action, rating, Brachiaria: 1
Abutilon [6]
  Post-emergence action, rating, Abutilon: 2

## Cc1nc(C(F)(F)F)ccc1C(=O)C1=C(Cl)C(C)(C)C(=O)C(C)(C)C1=NS(=O)(=O)c1cccnc1F [1.026, N-[3-chloro-5-oxo-4,4,6,6-tetramethyl-2-(2-methyl-6-trifluoromethyl-pyridine-3-carbonyl)-cyclohex-2-en-ylidene]-3-(2′-fluoropyridyl)sulfonamide]
Amarantus [7]
  Pre-emergence action, rating, Amarantus: 1
Digitaria [8]
  Pre-emergence action, rating, Digitaria: 1
Euphoria
  Pre-emergence action, rating, Euphoria: 2
Panicum [9]
  Pre-emergence action, rating, Panicum: 1
Chenopodium [10]
  Pre-emergence action, rating, Chenopodium: 1
Echinochloa
  Pre-emergence action, rating, Echinochloa: 1
Brachiaria [11]
  Pre-emergence action, rating, Brachiaria: 1
Abutilon [12]
  Pre-emergence action, rating, Abutilon: 1
Setaria
  Post-emergence action, rating, Setaria: 1
Stellaria
  Post-emergence action, rating, Stellaria: 2
Amarantus [1]
  Post-emergence action, rating, Amarantus: 1
Digitaria [2]
  Post-emergence action, rating, Digitaria: 1
Panicum [3]
  Post-emergence action, rating, Panicum: 1
Chenopodium [4]
  Post-emergence action, rating, Chenopodium: 1
Brachiaria [5]
  Post-emergence action, rating, Brachiaria: 2
Abutilon [6]
  Post-emergence action, rating, Abutilon: 1

## Cc1nc(C(F)(F)F)ccc1C(=O)C1=C(Cl)C(C)(C)C(=O)C(C)(C)C1=NS(=O)(=O)c1ccccc1 [1.027]
Amarantus [7]
  Pre-emergence action, rating, Amarantus: 1
Digitaria [8]
  Pre-emergence action, rating, Digitaria: 1
Euphoria
  Pre-emergence action, rating, Euphoria: 1
Panicum [9]
  Pre-emergence action, rating, Panicum: 1
Chenopodium [10]
  Pre-emergence action, rating, Chenopodium: 1
Echinochloa
  Pre-emergence action, rating, Echinochloa: 1
Brachiaria [11]
  Pre-emergence action, rating, Brachiaria: 1
Abutilon [12]
  Pre-emergence action, rating, Abutilon: 1
Setaria
  Post-emergence action, rating, Setaria: 1
Stellaria
  Post-emergence action, rating, Stellaria: 1
Amarantus [1]
  Post-emergence action, rating, Amarantus: 2
Digitaria [2]
  Post-emergence action, rating, Digitaria: 2
Panicum [3]
  Post-emergence action, rating, Panicum: 2
Chenopodium [4]
  Post-emergence action, rating, Chenopodium: 1
Brachiaria [5]
  Post-emergence action, rating, Brachiaria: 2
Abutilon [6]
  Post-emergence action, rating, Abutilon: 1

## C=CS(=O)(=O)N=C1C(C(=O)c2ccc(C(F)(F)F)nc2C)=C(Cl)C(C)(C)C(=O)C1(C)C [1.028, N-[3-chloro-3-oxo-4,4,6,6-tetramethyl-2-(2-methyl-6-trifluoromethyl-pyridine-3-carbonyl)-cyclohex-2-en-ylidene]-vinylsulfonamide]
Amarantus [7]
  Pre-emergence action, rating, Amarantus: 1
Digitaria [8]
  Pre-emergence action, rating, Digitaria: 3
Euphoria
  Pre-emergence action, rating, Euphoria: 2
Panicum [9]
  Pre-emergence action, rating, Panicum: 1
Chenopodium [10]
  Pre-emergence action, rating, Chenopodium: 1
Echinochloa
  Pre-emergence action, rating, Echinochloa: 1
Brachiaria [11]
  Pre-emergence action, rating, Brachiaria: 1
Abutilon [12]
  Pre-emergence action, rating, Abutilon: 1
Setaria
  Post-emergence action, rating, Setaria: 1
Stellaria
  Post-emergence action, rating, Stellaria: 1
Amarantus [1]
  Post-emergence action, rating, Amarantus: 2
Digitaria [2]
  Post-emergence action, rating, Digitaria: 1
Panicum [3]
  Post-emergence action, rating, Panicum: 1
Chenopodium [4]
  Post-emergence action, rating, Chenopodium: 1
Brachiaria [5]
  Post-emergence action, rating, Brachiaria: 2
Abutilon [6]
  Post-emergence action, rating, Abutilon: 1

## CSC1=C(C(=O)c2ccc(C(F)(F)F)nc2C)C(=NS(=O)(=O)c2cccnc2F)C(C)(C)C(=O)C1(C)C [1.078, N-[3-methylthio-5-oxo-4,4,6,6-tetramethyl-2-(2-methyl-6-trifluoromethyl-pyridine-3-carbonyl)-cyclohex-2-en-ylidene]-3-(2′-fluoropyridyl)sulfonamide]
Amarantus [7]
  Pre-emergence action, rating, Amarantus: 1
Digitaria [8]
  Pre-emergence action, rating, Digitaria: 1
Euphoria
  Pre-emergence action, rating, Euphoria: 2
Panicum [9]
  Pre-emergence action, rating, Panicum: 1
Chenopodium [10]
  Pre-emergence action, rating, Chenopodium: 1
Echinochloa
  Pre-emergence action, rating, Echinochloa: 1
Brachiaria [11]
  Pre-emergence action, rating, Brachiaria: 2
Abutilon [12]
  Pre-emergence action, rating, Abutilon: 1
Setaria
  Post-emergence action, rating, Setaria: 2
Stellaria
  Post-emergence action, rating, Stellaria: 3
Amarantus [1]
  Post-emergence action, rating, Amarantus: 2
Digitaria [2]
  Post-emergence action, rating, Digitaria: 1
Panicum [3]
  Post-emergence action, rating, Panicum: 1
Chenopodium [4]
  Post-emergence action, rating, Chenopodium: 1
Brachiaria [5]
  Post-emergence action, rating, Brachiaria: 3
Abutilon [6]
  Post-emergence action, rating, Abutilon: 1

## CSC1=C(C(=O)c2ccc(C(F)(F)F)nc2C)C(=NS(=O)(=O)c2ccccc2)C(C)(C)C(=O)C1(C)C [1.079]
Amarantus [7]
  Pre-emergence action, rating, Amarantus: 1
Digitaria [8]
  Pre-emergence action, rating, Digitaria: 1
Euphoria
  Pre-emergence action, rating, Euphoria: 2
Panicum [9]
  Pre-emergence action, rating, Panicum: 1
Chenopodium [10]
  Pre-emergence action, rating, Chenopodium: 1
Echinochloa
  Pre-emergence action, rating, Echinochloa: 1
Brachiaria [11]
  Pre-emergence action, rating, Brachiaria: 1
Abutilon [12]
  Pre-emergence action, rating, Abutilon: 1
Setaria
  Post-emergence action, rating, Setaria: 2
Stellaria
  Post-emergence action, rating, Stellaria: 1
Amarantus [1]
  Post-emergence action, rating, Amarantus: 2
Digitaria [2]
  Post-emergence action, rating, Digitaria: 2
Panicum [3]
  Post-emergence action, rating, Panicum: 2
Chenopodium [4]
  Post-emergence action, rating, Chenopodium: 1
Brachiaria [5]
  Post-emergence action, rating, Brachiaria: 2
Abutilon [6]
  Post-emergence action, rating, Abutilon: 2
